Measurements published in patent publication US20080025938A1, “Method and composition for permanently shaping hair” (priority 2006, published 2008).

Experiments:
[1] = versus N-methylmercaptoacetamide and N-hydroxyethylmercaptoacetamide; cited from earlier work
[2] = system: hair; assay: Permanent waving of hair on curlers with the composition, then oxidative fixing; assessed by hairdresser and customer; assay type: in vivo, human; conditions: used alone as the hair keratine reducing agent
Description: The method of permanent shaping of human hair according to the invention is defined as: A method for permanent shaping of hair, said method comprising the steps of: • (a) putting the hair in a desired shape; • (b) before and/or after the hair is put in the desired shape, applying an amount of a permanent shaping composition to the hair, and allowing the permanent shaping composition to act on the hair for a predetermined acting time sufficient for the permanent shaping of the hair; • (c) subsequently rinsing the hair with water or applying an intermediate treatment agent; • (d) performing an oxidative post-treatment of the hair; • (e) after the oxidative post-treatment, rinsing the hair with water and drying the hair, wherein said permanent shaping composition is a composition according to any-one of claims 1 to 13. Details of the method are given as follows. First the hair (which is washed and towel-dried) is separated into multiple sections and then these sections are rolled onto curlers. […] After the rolling on curlers is finished, the curlers are thoroughly wetted down using the required quantity of the permanent shaping composition, preferably about 60 g to about 120 g. […] The fixing composition is used in a quantity of about 50 g to about 200 g, preferably about 80 g to about 100 g, depending on hair thickness and length. […]

For `O=C(CS)NCCCO` [N-(3′-hydroxypropyl)-2-mercapto-acetamide], the sensitization rates [1] is listed as “substantially lower sensitization rates” and the “fastness of the permanent shaped hair to humidity, particularly sweat” value [2] is listed as “not sufficient”.
